The structures appear in SMILES notation. Where only a bound is given, the exact number is not on record here.

The results in this text go back to patent US20250263405A1, “HISTONE DEACETYLASE 6 INHIBITOR COMPOUNDS AND USES THEREOF” (VALO HEALTH, INC., priority 2021, published 2025).

Sequence of HDAC6 (Q9UBN7 whole entry): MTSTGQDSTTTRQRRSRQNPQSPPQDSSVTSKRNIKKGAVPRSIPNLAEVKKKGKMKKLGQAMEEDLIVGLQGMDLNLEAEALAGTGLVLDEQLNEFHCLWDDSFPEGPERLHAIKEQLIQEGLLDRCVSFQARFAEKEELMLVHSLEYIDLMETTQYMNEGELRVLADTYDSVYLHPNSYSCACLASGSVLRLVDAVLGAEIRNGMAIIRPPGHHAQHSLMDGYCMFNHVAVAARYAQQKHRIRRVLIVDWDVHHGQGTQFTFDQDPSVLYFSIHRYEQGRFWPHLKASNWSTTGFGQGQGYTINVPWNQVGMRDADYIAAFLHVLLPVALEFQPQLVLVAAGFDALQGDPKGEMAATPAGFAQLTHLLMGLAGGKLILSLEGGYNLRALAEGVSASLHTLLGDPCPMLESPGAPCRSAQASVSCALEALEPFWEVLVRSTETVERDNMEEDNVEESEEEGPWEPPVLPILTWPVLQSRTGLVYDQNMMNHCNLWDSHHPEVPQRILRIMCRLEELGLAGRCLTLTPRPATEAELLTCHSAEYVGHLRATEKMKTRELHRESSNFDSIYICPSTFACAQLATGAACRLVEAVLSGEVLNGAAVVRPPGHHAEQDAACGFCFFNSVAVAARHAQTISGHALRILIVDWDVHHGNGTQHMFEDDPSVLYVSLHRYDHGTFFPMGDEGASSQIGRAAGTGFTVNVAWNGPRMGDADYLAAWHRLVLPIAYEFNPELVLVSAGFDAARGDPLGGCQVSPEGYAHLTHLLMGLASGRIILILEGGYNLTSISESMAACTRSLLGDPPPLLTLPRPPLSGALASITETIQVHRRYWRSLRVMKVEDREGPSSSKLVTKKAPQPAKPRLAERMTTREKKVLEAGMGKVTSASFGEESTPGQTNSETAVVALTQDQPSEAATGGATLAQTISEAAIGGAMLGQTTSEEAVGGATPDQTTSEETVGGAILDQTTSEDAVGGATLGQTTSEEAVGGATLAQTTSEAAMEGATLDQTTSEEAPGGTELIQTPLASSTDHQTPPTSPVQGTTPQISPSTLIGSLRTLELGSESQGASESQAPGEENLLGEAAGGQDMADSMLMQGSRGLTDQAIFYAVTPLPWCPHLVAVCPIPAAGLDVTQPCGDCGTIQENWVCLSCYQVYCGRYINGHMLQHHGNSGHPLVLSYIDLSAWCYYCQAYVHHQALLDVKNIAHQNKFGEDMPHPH

This assay addresses HDAC6 (Homo sapiens (Human), UniProt Q9UBN7). Nature of the assay: HDAC6 TR-FRET displacement assay. It is filed as binding. The following applies: displacement of fluorescein labeled tracer from HDAC6; 2 nM HDAC6, 1 nM tracer, 0.5 nM Tb-anti-GST antibody; 30 min pre-incubation, 6 hours at 25° C. The text has this: HDAC6 and Tb-anti-GST antibody were purchased from Signal Chem (cat #PC124) and Cisbio (cat #61GSTTAH), respectively. HEPES, pH 7.5 was purchased from Teknova (Cat #H1575). All other buffer components, NaCl (cat #S5150), KCl (cat #60121), Triton X-100 (cat #T9284), GSH (cat #G4251), BGG (cat #G5009), and BSA (cat #A2153) were purchased from SIGMA.
Displacement of fluorescein labeled tracer 2-(6-hydroxy-3-oxo-3H-xanthen-9-yl)-5-({[5-(4-{[7-(hydroxycarbamoyl)-2H,3H,4H,5H-thieno[2,3-f][1,4]oxazepine-4-carbonyl]amino}phenoxy)pentyl]carbamothioyl}amino)benzoic acid from HDAC6 was measured in vitro using a TR-FRET assay. The assays were performed in 1536-well plates in a total volume of 6 μL in assay buffer consisting of 50 mM HEPES pH 7.5, 50 mM NaCl, 50 mM KCl, 0.01% Triton X-100, 0.5 mM GSH, 0.03% BGG, 0.01% BSA.
For concentration response curves (IC50 determination), Compounds were serially diluted 3-fold from 2 mM highest concentration to generate a 10-point concentration gradient. To perform the assay, 30 nL of compound gradient solutions were transferred to the assay plate using the ECHO acoustic dispenser to achieve a final concentration range of 10 μM to 0.000508 uM in 6 μL reaction. 3 μL of HDAC6 in assay buffer were added to the assay plates and pre-incubate at room temp. for 30 mins. After pre-incubation, 3 μL of the tracer and TB-anti-GST antibody mix were added to the assay plates. The final concentrations of HDAC6, tracer, and TB-anti-GST antibody for each assay are 2 nM, 1 nM, and 0.5 nM, respectively. Binding reactions were equilibrated at 25° C. for an additional 6 hours, then read in endpoint mode on the BMG PheraStar (BMG labtech) equipped with a 337-520-490 optical module. The ratio of the 520/490 nm emission was calculated to determine the relative amounts of HDAC6 and tracer complex residue in each well.
The percent inhibition of HDAC6 (IC50) was calculated according to the following equation.
As set forth in Table 1, “A” indicates an HDAC6 IC50 value of less than 200 nM; “B” indicates an HDAC6 IC50 value of greater than or equal to 200 nM and less than 500 nM; and “C” indicates an HDAC6 IC50 value of greater than or equal to 500 nM and less than 5 μM.
On the technique in general: TR-FRET usually uses a lanthanide donor and a delayed reading to cut background.
For `CC1(C(=O)N2CCOc3cc(-c4noc(C(F)(F)F)n4)cc(F)c3C2)CCOCC1` [Compound 28, 6-fluoro-4-[(4-methyloxan-4-yl)carbonyl]-8-[5-(trifluoromethyl)-1,2,4-oxadiazol-3-yl]-3,5-dihydro-2H-1,4-benzoxazepine], the IC50 (usually the concentration that inhibits the measured activity by half) was below 200 nM.
For `O=C(N1Cc2ccc(-c3noc(C(F)(F)F)n3)cc2OC[C@@H]1c1ccccc1)C(F)(F)F` [Compound 6, (S)-2,2,2-trifluoro-1-(3-phenyl-8-(5-(trifluoromethyl)-1,2,4-oxadiazol-3-yl)-2,3-dihydrobenzo[f][1,4]oxazepin-4(5H)-yl)ethan-1-one], the IC50 was in the range of 500 to 5000 nM.
As for `C[C@H]1COc2cc(-c3noc(C(F)(F)F)n3)cc(F)c2CN1C(=O)C1(C)COC1` [Compound 1, (S)-(6-fluoro-3-methyl-8-(5-(trifluoromethyl)-1,2,4-oxadiazol-3-yl)-2,3-dihydrobenzo[f][1,4]oxazepin-4(5H)-yl)(3-methyloxetan-3-yl)methanone], the IC50 was below 200 nM.
For `CC(C)(C)C(=O)N1Cc2c(F)cc(-c3noc(C(F)(F)F)n3)cc2OC[C@@H]1c1ccccc1` [Compound 15, (S)-1-(6-fluoro-3-phenyl-8-(5-(trifluoromethyl)-1,2,4-oxadiazol-3-yl)-2,3-dihydrobenzo[f][1,4]oxazepin-4(5H)-yl)-2,2-dimethylpropan-1-one] the value was 200 to 500 nM.
Regarding `C[C@H]1COc2cc(-c3noc(C(F)(F)F)n3)cc(F)c2CN1C(=O)CO` [Compound 40, 1-[(3S)-6-fluoro-3-methyl-8-[5-(trifluoromethyl)-1,2,4-oxadiazol-3-yl]-3,5-dihydro-2H-1,4-benzoxazepin-4-yl]-2-hydroxyethanone], the IC50 lay within 200 to 500 nM.
Regarding `C[C@H]1COc2cc(-c3noc(C(F)(F)F)n3)ccc2CN1C(=O)C(C)(C)C` [Compound 17, 2,2-dimethyl-1-[(3S)-3-methyl-8-[5-(trifluoromethyl)-1,2,4-oxadiazol-3-yl]-3,5-dihydro-2H-1,4-benzoxazepin-4-yl]propan-1-one], the IC50 was below 200 nM.
For `CC1(C(=O)N2Cc3ccc(-c4noc(C(F)(F)F)n4)cc3OC[C@@H]2C2CC2)CCOCC1` [Compound 32, (3S)-3-cyclopropyl-4-[(4-methyloxan-4-yl)carbonyl]-8-[5-(trifluoromethyl)-1,2,4-oxadiazol-3-yl]-3,5-dihydro-2H-1,4-benzoxazepine] the value was below 200 nM; for `C[C@H]1COc2cc(-c3noc(C(F)(F)F)n3)cc(F)c2CN1C(=O)Cc1ccncc1` [Compound 46, 1-[(3S)-6-fluoro-3-methyl-8-[5-(trifluoromethyl)-1,2,4-oxadiazol-3-yl]-3,5-dihydro-2H-1,4-benzoxazepin-4-yl]-2-(pyridin-4-yl) ethenone], below 200 nM.
Consider `CC(C)(C)C(=O)N1CCOc2cc(-c3noc(C(F)(F)F)n3)cc(F)c2C1` [Compound 29, 1-{6-fluoro-8-[5-(trifluoromethyl)-1,2,4-oxadiazol-3-yl]-3,5-dihydro-2H-1,4-benzoxazepin-4-yl}-2,2-dimethylpropan-1-one], for which the IC50 was below 200 nM.
`COCC1(C(=O)N2Cc3c(F)cc(-c4noc(C(F)(F)F)n4)cc3OC[C@@H]2C)CC1` [Compound 31, (3S)-6-fluoro-4-{[1-(methoxymethyl)cyclopropyl]carbonyl}-3-methyl-8-[5-(trifluoromethyl)-1,2,4-oxadiazol-3-yl]-3,5-dihydro-2H-1,4-benzoxazepine] showed an IC50 of 200 to 500 nM.
As for `C[C@H]1COc2cc(-c3noc(C(F)(F)F)n3)ccc2CN1S(=O)(=O)C(C)(C)C` [Compound 34, (3S)-3-methyl-4-(2-methylpropane-2-sulfonyl)-8-[5-(trifluoromethyl)-1,2,4-oxadiazol-3-yl]-3,5-dihydro-2H-1,4-benzoxazepine], the IC50 is 200 to 500 nM.
In turn, `COCC1(C(=O)N2Cc3ccc(-c4noc(C(F)(F)F)n4)cc3OC[C@@H]2c2ccccc2)COC1` [Compound 7, (3S)-4-{[3-(methoxymethyl)oxetan-3-yl]carbonyl}-3-phenyl-8-[5-(trifluoromethyl)-1,2,4-oxadiazol-3-yl]-3,5-dihydro-2H-1,4-benzoxazepine] had an IC50 below 200 nM.
For `COCC1(C(=O)N2Cc3c(F)cc(-c4noc(C(F)(F)F)n4)cc3OC[C@@H]2C)COC1` [Compound 30, (3S)-6-fluoro-4-{[3-(methoxymethyl)oxetan-3-yl]carbonyl}-3-methyl-8-[5-(trifluoromethyl)-1,2,4-oxadiazol-3-yl]-3,5-dihydro-2H-1,4-benzoxazepine] the value was below 200 nM.
For `CC(C)C(=O)N1Cc2c(F)cc(-c3noc(C(F)(F)F)n3)cc2OC[C@@H]1C` [Compound 38, 1-[(3S)-6-fluoro-3-methyl-8-[5-(trifluoromethyl)-1,2,4-oxadiazol-3-yl]-3,5-dihydro-2H-1,4-benzoxazepin-4-yl]-2-methylpropan-1-one] the value was below 200 nM.
As to `CC(C)(C)OC(=O)N1Cc2ccc(-c3noc(C(F)(F)F)n3)cc2OC[C@@H]1c1ccccc1` [Compound 8, tert-butyl (S)-3-phenyl-8-(5-(trifluoromethyl)-1,2,4-oxadiazol-3-yl)-2,3-dihydrobenzo[f][1,4]oxazepine-4(5H)-carboxylate], the IC50 fell in the range of 500 to 5000 nM.
The molecule `O=C(C1CCOCC1)N1CCOc2cc(-c3noc(C(F)(F)F)n3)ccc2C1` [Compound 54, 4-[(oxan-4-yl)carbonyl]-8-[5-(trifluoromethyl)-1,2,4-oxadiazol-3-yl]-3,5-dihydro-2H-1,4-benzoxazepine] displayed an IC50 of 200 to 500 nM.
Turning to `CC1(C(=O)N2Cc3ccc(-c4noc(C(F)(F)F)n4)cc3OC[C@@H]2c2ccccc2)COC1` [Compound 5, (3S)-4-[(3-methyloxetan-3-yl)carbonyl]-3-phenyl-8-[5-(trifluoromethyl)-1,2,4-oxadiazol-3-yl]-3,5-dihydro-2H-1,4-benzoxazepine], the IC50 was below 200 nM.
For `COC[C@H]1COc2cc(-c3noc(C(F)(F)F)n3)ccc2CN1C(=O)C1(C)CCOCC1` [Compound 26, (3S)-3-(methoxymethyl)-4-[(4-methyloxan-4-yl)carbonyl]-8-[5-(trifluoromethyl)-1,2,4-oxadiazol-3-yl]-3,5-dihydro-2H-1,4-benzoxazepine] the value was below 200 nM; for `C[C@H]1COc2cc(-c3noc(C(F)(F)F)n3)cc(F)c2CN1C(=O)C1(C)CCOCC1` [Compound 18, (3S)-6-fluoro-3-methyl-4-[(4-methyloxan-4-yl)carbonyl]-8-[5-(trifluoromethyl)-1,2,4-oxadiazol-3-yl]-3,5-dihydro-2H-1,4-benzoxazepine], below 200 nM.
In the case of `C[C@H]1COc2cc(-c3noc(C(F)(F)F)n3)cc(F)c2CN1C(=O)CCN(C)C` [Compound 42, (S)-3-(dimethylamino)-1-(6-fluoro-3-methyl-8-(5-(trifluoromethyl)-1,2,4-oxadiazol-3-yl)-2,3-dihydrobenzo[f][1,4]oxazepin-4(5H)-yl)propan-1-one], the IC50 was in the range of 200 to 500 nM.
For `COC[C@H]1COc2cc(-c3noc(C(F)(F)F)n3)ccc2CN1C(=O)C(C)(C)C` [Compound 27, 1-[(3S)-3-(methoxymethyl)-8-[5-(trifluoromethyl)-1,2,4-oxadiazol-3-yl]-3,5-dihydro-2H-1,4-benzoxazepin-4-yl]-2,2-dimethylpropan-1-one] the value was below 200 nM.
In turn, `CC(C)(C)C(=O)N1Cc2ccc(-c3noc(C(F)(F)F)n3)cc2OC[C@@H]1c1ccccc1` [Compound 23, 2,2-dimethyl-1-[(3S)-3-phenyl-8-[5-(trifluoromethyl)-1,2,4-oxadiazol-3-yl]-3,5-dihydro-2H-1,4-benzoxazepin-4-yl]propan-1-one] returned an IC50 of 200 to 500 nM.
In the case of `CC1(C(=O)N2CCOc3cc(-c4noc(C(F)(F)F)n4)ccc3C2)COC1` [Compound 52, 4-[(3-methyloxetan-3-yl)carbonyl]-8-[5-(trifluoromethyl)-1,2,4-oxadiazol-3-yl]-3,5-dihydro-2H-1,4-benzoxazepine], the IC50 fell in the range of 200 to 500 nM.
